Data from ChEMBL document CHEMBL1155159, “Population pharmacokinetics of tafenoquine during malaria prophylaxis in healthy subjects” (Antimicrob Agents Chemother, 2007).

Columns and labels:
[1] = Trough concentration in po dosed human at 200 mg daily for 3 days followed by weekly dose of 200 mg for 6 months after 8 weeks; format: ADME, organism-based; conditions: in vivo, read-out: Cmin
[2] = Apparent clearance with respect to the bioavailability po dosed human receiving 1000 mg cumulative dose and reporting drug-associated depression on day 24 at 200 mg daily for 3 days followed by weekly dose of 200 mg for 6 months; format: ADME, organism-based; conditions: in vivo
[3] = Apparent volume of distribution with respect to the bioavailability in po dosed human receiving 1000 mg cumulative dose and reporting drug-associated depression on day 24 at 200 mg daily for 3 days followed by weekly dose of 200 mg for 6 months; format: ADME, organism-based; conditions: in vivo, read-out: Vc/F
[4] = Apparent volume of distribution with respect to bioavailability in po dosed human at 200 mg daily for 3 days followed by weekly dose of 200 mg for 6 months; format: ADME, organism-based; conditions: in vivo, read-out: Vc/F
[5] = Half life po dosed human receiving 400 mg cumulative dose and reporting drug-associated diarrhea and/or abdominal pain on day 2 at 200 mg daily for 3 days followed by weekly dose of 200 mg for 6 months; format: ADME, organism-based, Abdomen; conditions: in vivo
[6] = Apparent volume of distribution with respect to the bioavailability in po dosed human receiving 600 mg cumulative dose and reporting drug-associated vomiting and/or nausea on day 3 at 200 mg daily for 3 days followed by weekly dose of 200 mg for 6 months; format: ADME, organism-based; conditions: in vivo, read-out: Vc/F
[7] = Half life po dosed human receiving 800 mg cumulative dose and reporting drug-associated hyperesthesia on day 12 at 200 mg daily for 3 days followed by weekly dose of 200 mg for 6 months; format: ADME, organism-based; conditions: in vivo
[8] = Apparent clearance with respect to the bioavailability po dosed human receiving 400 mg cumulative dose and reporting drug-associated diarrhea and/or abdominal pain on day 2 at 200 mg daily for 3 days followed by weekly dose of 200 mg for 6 months; format: ADME, organism-based, Abdomen; conditions: in vivo
[9] = Apparent clearance with respect to bioavailability in po dosed human at 200 mg daily for 3 days followed by weekly dose of 200 mg for 6 months; format: ADME, organism-based; conditions: in vivo
[10] = Apparent clearance with respect to the bioavailability po dosed human receiving 1000 mg cumulative dose and reporting drug-associated abdominal pain on day 20 at 200 mg daily for 3 days followed by weekly dose of 200 mg for 6 months; format: ADME, organism-based, Abdomen; conditions: in vivo
[11] = Apparent clearance with respect to the bioavailability po dosed human receiving 800 mg cumulative dose and reporting drug-associated with hyperesthesia on day 12 at 200 mg daily for 3 days followed by weekly dose of 200 mg for 6 months; format: ADME, organism-based; conditions: in vivo
[12] = Apparent volume of distribution with respect to the bioavailability in po dosed human receiving 800 mg cumulative dose and reporting drug-associated hyperesthesia on day 12 at 200 mg daily for 3 days followed by weekly dose of 200 mg for 6 months; format: ADME, organism-based; conditions: in vivo, read-out: Vc/F
[13] = Apparent volume of distribution with respect to the bioavailability in po dosed human receiving 1000 mg cumulative dose and reporting drug-associated abdominal pain on day 20 at 200 mg daily for 3 days followed by weekly dose of 200 mg for 6 months; format: ADME, organism-based, Abdomen; conditions: in vivo, read-out: Vc/F
[14] = Clast in po dosed human […] and reporting drug-associated hyperesthesia on day 12 dosed at 200 mg daily for 3 days followed by weekly dose of 200 mg for 6 months; format: ADME, organism-based; conditions: in vivo, read-out: Clast
[15] = Half life in po dosed human at 200 mg daily for 3 days followed by weekly dose of 200 mg for 6 months; format: ADME, organism-based; conditions: in vivo
[16] = Apparent volume of distribution with respect to the bioavailability in po dosed human receiving 400 mg cumulative dose and reporting drug-associated diarrhea and/or abdominal pain on day 2 at 200 mg daily for 3 days followed by weekly dose of 200 mg for 6 months; format: ADME, organism-based, Abdomen; conditions: in vivo, read-out: Vc/F
[17] = Apparent clearance with respect to the bioavailability in human at 600 mg cumulative dose with vomiting and/or nausea reported on day 3 at 200 mg daily for 3 days followed by weekly dose of 200 mg for 6 months, po; format: ADME, organism-based; conditions: in vivo
[18] = Tmax in human administered with standard high-fat meal; format: ADME, organism-based; conditions: in vivo
[19] = Apparent clearance with respect to the bioavailability po dosed human receiving 200 mg cumulative dose and reporting drug-associated insomnia reported on day 1 at 200 mg daily for 3 days followed by weekly dose of 200 mg for 6 months; format: ADME, organism-based; conditions: in vivo
[20] = Clast in po dosed human receiving 1000 mg cumulative dose and reporting drug-associated abdominal pain on day 20 at 200 mg daily for 3 days followed by weekly dose of 200 mg for 6 months; format: ADME, organism-based, Abdomen; conditions: in vivo, read-out: Clast
[21] = Half life po dosed human receiving 200 mg cumulative dose and reporting drug-associated insomnia on day 1 at 200 mg daily for 3 days followed by weekly dose of 200 mg for 6 months; format: ADME, organism-based; conditions: in vivo
[22] = Tmax in fasted human; format: ADME, organism-based; conditions: in vivo
[23] = Clast in po dosed human receiving 600 mg cumulative dose and reporting drug-associated vomiting and/or nausea reported on day 3 at 200 mg daily for 3 days followed by weekly dose of 200 mg for 6 months; format: ADME, organism-based; conditions: in vivo, read-out: Clast
[24] = Trough concentration in po dosed human at 200 mg daily for 3 days followed by weekly dose of 200 mg for 6 months after 4 weeks; format: ADME, organism-based; conditions: in vivo, read-out: Cmin
[25] = Trough concentration in po dosed human at 200 mg daily for 3 days followed by weekly dose of 200 mg for 6 months after 16 weeks; format: ADME, organism-based; conditions: in vivo, read-out: Cmin
[26] = Half life po dosed human receiving 1000 mg cumulative dose and reporting drug-associated vomiting and/or nausea on day 3 at 200 mg daily for 3 days followed by weekly dose of 200 mg for 6 months; format: ADME, organism-based; conditions: in vivo
[27] = Half life po dosed human receiving 1000 mg cumulative dose and reporting drug-associated depression on day 24 at 200 mg daily for 3 days followed by weekly dose of 200 mg for 6 months; format: ADME, organism-based; conditions: in vivo
[28] = Clast in po dosed human receiving 1000 mg cumulative dose and reporting drug-associated depression reported on day 24 at 200 mg daily for 3 days followed by weekly dose of 200 mg for 6 months; format: ADME, organism-based; conditions: in vivo, read-out: Clast
[29] = Apparent volume of distribution with respect to the bioavailability in po dosed human receiving 400 mg cumulative dose and reporting drug-associated insomnia on day 1 at 200 mg daily for 3 days followed by weekly dose of 200 mg for 6 months; format: ADME, organism-based; conditions: in vivo, read-out: Vc/F
[30] = Half life po dosed human receiving 1000 mg cumulative dose and reporting drug-associated abdominal pain on day 20 at 200 mg daily for 3 days followed by weekly dose of 200 mg for 6 months; format: ADME, organism-based, Abdomen; conditions: in vivo

Compound COc1cc(C)c2c(Oc3cccc(C(F)(F)F)c3)c(OC)cc(NC(C)CCCN)c2n1 (stereo not given) [TAFENOQUINE] has a concentration at 1344 h [1] of 221 ng/mL, a CL/F [2] of 1.02 mL/min/kg and a Vd/F [3] of 25.1 L/kg. The Vd/F [4] was 1900 L, the half-life [5] was 12 days and the Vd/F [6] was 26.1 L/kg. The half-life [7] was 13.1 days, the CL/F [8] was 0.983 mL/min/kg and the CL/F [9] was 72.8 mL/min. The CL/F [10] was 0.883 mL/min/kg, the CL/F [11] was 0.767 mL/min/kg and the Vd/F [12] was 20.7 L/kg. It also gave a Vd/F [13] of 27.8 L/kg, a concentration at 72 h [14] of 283 ng/mL and a half-life [15] of 12.7 days. The Vd/F [16] was 24.4 L/kg, the CL/F [17] was 1.28 mL/min/kg and the Tmax [18] was 1.1 days. It also gave a CL/F [19] of 0.983 mL/min/kg, a concentration at 72 h [20] of 253 ng/mL and a half-life [21] of 11.3 days. For the same compound, the Tmax [22] was 0.775 days, the concentration at 72 h [23] was 315 ng/mL and the concentration at 672 h [24] was 221 ng/mL. For the same compound, the concentration at 2688 h [25] was 221 ng/mL, the half-life [26] was 9.8 days and the half-life [27] was 12 days. It also gave a concentration at 72 h [28] of 275 ng/mL, a Vd/F [29] of 23.2 L/kg and a half-life [30] of 15.1 days.
